Laboratory results taken from patent publication US12227482B2, “Compounds and compositions for the treatment of cancer” (The Regents of the University of California, priority 2016, dated 2025).

Assays:
Assay type in all cases: cell-based
Conditions in all cases: 72 hours treatment, cell survival by CellTiter-Glo, 2% fetal bovine serum
A549 cells = assay: Cell viability (CellTiter-Glo ATP content) in A549 cells
Outline: (§1)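 Cells plated at 5,000 per well in antibiotic-free RPMI with 2% FBS, treated next day in triplicate with increasing compound doses (final DMSO 0.5%) for 72 hours. Viability read as ATP content by CellTiter-Glo luminescence; percent survival relative to vehicle control set as 100%.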

LOX cells = assay: Cell viability (CellTiter-Glo ATP content) in LOX cells
Outline: as §1

MelJuSo cells = assay: Cell viability (CellTiter-Glo ATP content) in MelJuSo cells
Outline: as §1

SMILES	IC50 (A549 cells; Homo sapiens, A549, 72 h)	IC50 (LOX cells; LOX, 72 h)	IC50 (MelJuSo cells; Homo sapiens, MEL-JUSO)	IC50 (A549 cells)	IC50 (LOX cells)	IC50 (MelJuSo cells)
COCCNC(=O)C1(C)C(c2ccc(Cl)s2)C(c2ccc(F)cc2)=NN1c1ccc(F)cc1F (stereo not drawn) [Compound 102, 4-(5-chlorothiophen-2-yl)-1-(2,4-difluorophenyl)-3-(4-fluorophenyl)-N-(2-methoxyethyl)-5-methyl-4,5-dihydro-1H-pyrazole-5-carboxamide]	1 to 2 µM	0.5 to 1 µM	0.25 to 0.5 µM			
CCCCC1C(c2ccc(F)cc2F)=NN(c2ccccc2)C1(C)C(=O)NCCOC (stereo not drawn) [Compound 57, 4-butyl-3-(2,4-difluorophenyl)-N-(2-methoxyethyl)-5-methyl-1-phenyl-4,5-dihydro-1H-pyrazole-5-carboxamide]	1 to 2 µM	0.5 to 1 µM	0.5 to 1 µM			
CCCCC1C(c2ccc(F)cc2)=NN(c2ccc(F)cc2F)C1(C)C(=O)NCCCC(C)(C)CO (stereo not drawn) [Compound 3, 4-butyl-1-(2,4-difluorophenyl)-3-(4-fluorophenyl)-N-(5-hydroxy-4,4-dimethylpentyl)-5-methyl-4,5-dihydro-1H-pyrazole-5-carboxamide]	0.5 to 1 µM	0.5 to 1 µM	0.5 to 1 µM			
CCCCC1C(c2ccc(F)cc2)=NN(c2ccc(F)cc2F)C1(C)C(=O)NCC(=O)OC (stereo not drawn) [Compound 81, methyl 2-(4-butyl-1-(2,4-difluorophenyl)-3-(4-fluorophenyl)-5-methyl-4,5-dihydro-1H-pyrazole-5-carboxamido)acetate]	0.5 to 1 µM	0.5 to 1 µM	< 0.25 µM			
CC(C)(CO)CCCNC(=O)C1(C)C(c2ccc(Cl)s2)C(c2ccc(F)cc2)=NN1c1ccc(F)cc1F (stereo not drawn) [Compound 101, 4-(5-chlorothiophen-2-yl)-1-(2,4-difluorophenyl)-3-(4-fluorophenyl)-N-(5-hydroxy-4,4-dimethylpentyl)-5-methyl-4,5-dihydro-1H-pyrazole-5-carboxamide]	> 2 µM	> 2 µM	0.5 to 1 µM			
CCCCC1C(c2ccc(F)cc2)=NN(c2ccc(C)cc2)C1(C)C(=O)NCCCC(C)(C)CO (stereo not drawn) [Compound 62, 4-butyl-3-(4-fluorophenyl)-N-(5-hydroxy-4,4-dimethylpentyl)-5-methyl-1-p-tolyl-4,5-dihydro-1H-pyrazole-5-carboxamide]				> 2 µM	0.5 to 1 µM	0.25 to 0.5 µM
CCCCC1C(c2ccc(F)cc2)=NN(c2ccccc2)C1(C)C(=O)NCCS(C)(=O)=O (stereo not drawn) [Compound 79, 4-butyl-3-(4-fluorophenyl)-5-methyl-N-(2-(methylsulfonyl)ethyl)-1-phenyl-4,5-dihydro-1H-pyrazole-5-carboxamide]	> 2 µM	> 2 µM	> 2 µM			
CCCCC1C(c2ccc(F)cc2)=NN(c2ccc(F)cc2F)C1(C)C(=O)NCCCCOC (stereo not drawn) [Compound 25, 4-butyl-1-(2,4-difluorophenyl)-3-(4-fluorophenyl)-N-(4-methoxybutyl)-5-methyl-4,5-dihydro-1H-pyrazole-5-carboxamide]	> 2 µM	> 2 µM	1 to 2 µM			
CCCCC1C(c2ccc(F)cc2)=NN(c2ccccc2)C1(C)C(=O)NCCF (stereo not drawn) [Compound 70, 4-butyl-N-(2-fluoroethyl)-3-(4-fluorophenyl)-5-methyl-1-phenyl-4,5-dihydro-1H-pyrazole-5-carboxamide]	> 2 µM	1 to 2 µM	0.5 to 1 µM			
CCCCC1C(c2c(F)cc(F)cc2F)=NN(c2ccc(F)cc2F)C1(C)C(=O)NCC(=O)OC (stereo not drawn) [Compound 98, methyl 2-(4-butyl-1-(2,4-difluorophenyl)-5-methyl-3-(2,4,6-trifluorophenyl)-4,5-dihydro-1H-pyrazole-5-carboxamido)acetate]	> 2 µM	> 2 µM	0.5 to 1 µM			
CCCCC1C(c2ccc(F)cc2)=NN(c2ccccc2)C1(C)C(=O)NCC1CC1 (stereo not drawn) [Compound 73, 4-butyl-N-(cyclopropylmethyl)-3-(4-fluorophenyl)-5-methyl-1-phenyl-4,5-dihydro-1H-pyrazole-5-carboxamide]	> 2 µM	1 to 2 µM	1 to 2 µM			
CCCCC1C(c2ccc(F)cc2)=NN(c2ccccc2)C1(C)C(=O)NCCCC(C)(C)CO (stereo not drawn) [Compound 1, 4-butyl-3-(4-fluorophenyl)-N-(5-hydroxy-4,4-dimethylpentyl)-5-methyl-1-phenyl-4,5-dihydro-1H-pyrazole-5-carboxamide]	0.5 to 1 µM	0.5 to 1 µM	0.25 to 0.5 µM			
CCCCC1C(c2ccc(F)cc2)=NN(c2ccc(F)cc2F)C1(C)C(=O)NCCCOC (stereo not drawn) [Compound 5, 4-butyl-1-(2,4-difluorophenyl)-3-(4-fluorophenyl)-N-(3-methoxypropyl)-5-methyl-4,5-dihydro-1H-pyrazole-5-carboxamide]	1 to 2 µM	1 to 2 µM	0.5 to 1 µM			
CCCCC1C(c2ccc(F)cc2)=NN(c2ccccc2)C1(C)C(=O)NCC(C)(C)C (stereo not drawn) [Compound 72, 4-butyl-3-(4-fluorophenyl)-5-methyl-N-neopentyl-1-phenyl-4,5-dihydro-1H-pyrazole-5-carboxamide]	> 2 µM	> 2 µM	> 2 µM			
CCCCC1C(c2ccc(F)cc2)=NN(c2ccc(F)cc2F)C1(C)C(=O)NCCO (stereo not drawn) [Compound 84, 4-butyl-1-(2,4-difluorophenyl)-3-(4-fluorophenyl)-N-(2-hydroxyethyl)-5-methyl-4,5-dihydro-1H-pyrazole-5-carboxamide]	1 to 2 µM	1 to 2 µM	0.5 to 1 µM			
CC(C)(CO)CCCNC(=O)C1(C)C(c2ccsc2)C(c2ccc(F)cc2F)=NN1c1ccc(F)cc1F (stereo not drawn) [Compound 117, 1,3-bis(2,4-difluorophenyl)-N-(5-hydroxy-4,4-dimethylpentyl)-5-methyl-4-(thiophen-3-yl)-4,5-dihydro-1H-pyrazole-5-carboxamide]	0.5 to 1 µM	0.5 to 1 µM	0.25 to 0.5 µM			
CCCCC1C(c2ccc(F)cc2)=NN(c2ccccc2)C1(C)C(=O)NCc1ccc(CN2CCOCC2)cc1 (stereo not drawn) [Compound 80, 4-butyl-3-(4-fluorophenyl)-5-methyl-N-(4-(morpholinomethyl)benzyl)-1-phenyl-4,5-dihydro-1H-pyrazole-5-carboxamide]	> 2 µM	> 2 µM	> 2 µM			
CN1CCOC(CNC(=O)C2(C)C(c3cccs3)C(c3ccc(F)cc3)=NN2c2ccc(F)cc2F)C1 (stereo not drawn) [Compound 127, 1-(2,4-difluorophenyl)-3-(4-fluorophenyl)-5-methyl-N-((4-methylmorpholin-2-yl)methyl)-4-(thiophen-2-yl)-4,5-dihydro-1H-pyrazole-5-carboxamide]	0.5 to 1 µM	0.5 to 1 µM	< 0.25 µM			
COCCNC(=O)C1(C)C(c2cccs2)C(c2ccc(F)cc2)=NN1c1ccc(C)cc1 (stereo not drawn) [Compound 63, 3-(4-fluorophenyl)-N-(2-methoxyethyl)-5-methyl-4-(thiophen-2-yl)-1-p-tolyl-4,5-dihydro-1H-pyrazole-5-carboxamide]	0.25 to 0.5 µM	< 0.25 µM	< 0.25 µM			
CN(C)CCNC(=O)CNC(=O)C1(C)C(c2cccs2)C(c2ccc(F)cc2)=NN1c1ccc(F)cc1F (stereo not drawn) [Compound 107, 1-(2,4-difluorophenyl)-N-(2-(2-(dimethylamino)ethylamino)-2-oxoethyl)-3-(4-fluorophenyl)-5-methyl-4-(thiophen-2-yl)-4,5-dihydro-1H-pyrazole-5-carboxamide]	> 2 µM	> 2 µM	1 to 2 µM			
COCCNC(=O)C1(C)C(c2cccs2)C(c2ccc(F)cc2)=NN1c1ccc(F)cc1F (stereo not drawn) [Compound 60, 1-(2,4-difluorophenyl)-3-(4-fluorophenyl)-N-(2-methoxyethyl)-5-methyl-4-(thiophen-2-yl)-4,5-dihydro-1H-pyrazole-5-carboxamide]	0.25 to 0.5 µM	< 0.25 µM	< 0.25 µM			
CCCCC1C(c2ccc(F)c(F)c2)=NN(c2ccccc2)C1(C)C(=O)NCCCCC(C)(C)O (stereo not drawn) [Compound 10, 4-butyl-3-(3,4-difluorophenyl)-N-(5-hydroxy-5-methylhexyl)-5-methyl-1-phenyl-4,5-dihydro-1H-pyrazole-5-carboxamide]	> 2 µM	1 to 2 µM	0.5 to 1 µM			
CCCCC1C(c2ccc(F)cc2F)=NN(c2ccccc2)C1(C)C(=O)NCCCC(C)(C)CO (stereo not drawn) [Compound 56, 4-butyl-3-(2,4-difluorophenyl)-N-(5-hydroxy-4,4-dimethylpentyl)-5-methyl-1-phenyl-4,5-dihydro-1H-pyrazole-5-carboxamide]	> 2 µM	1 to 2 µM	0.5 to 1 µM			
CCCCC1C(c2ccc(F)cc2)=NN(c2ccc(F)cc2F)C1(C)C(=O)NCCCN(C)C (stereo not drawn) [Compound 24, 4-butyl-1-(2,4-difluorophenyl)-N-(3-(dimethylamino)propyl)-3-(4-fluorophenyl)-5-methyl-4,5-dihydro-1H-pyrazole-5-carboxamide]	> 2 µM	> 2 µM	> 2 µM			
CC(C)(CO)CCCNC(=O)C1(C)C(c2cccs2)C(c2ccc(F)cc2)=NN1c1ccccc1 (stereo not drawn) [Compound 20, 3-(4-fluorophenyl)-N-(5-hydroxy-4,4-dimethylpentyl)-5-methyl-1-phenyl-4-(thiophen-2-yl)-4,5-dihydro-1H-pyrazole-5-carboxamide]	0.5 to 1 µM	0.5 to 1 µM	0.25 to 0.5 µM			
CCCCC1C(c2ccc(F)cc2)=NN(c2cccc(Cl)c2)C1(C)C(=O)NCCCC(C)(C)CO (stereo not drawn) [Compound 17, 4-butyl-1-(3-chlorophenyl)-3-(4-fluorophenyl)-N-(5-hydroxy-4,4-dimethylpentyl)-5-methyl-4,5-dihydro-1H-pyrazole-5-carboxamide]	1 to 2 µM	1 to 2 µM	0.25 to 0.5 µM			
